Values joined by “and” are separate entries in the source; they are usually repeats but may differ in a detail not shown here. Equal values may be shown once.
How the values were obtained:
[1] = Fluorescence intensity of selenide 1 and phenol 5; assay type: physicochemical
Method: All fluorescence measurements (excitation 490 nm, emission 510-570 nm) were carried out using a Promega Biosystems Modulus II Microplate Reader or a HoribaMax Fluorometer unless otherwise stated. Data analysis was performed using GraphPad Prism 8.
The fluorescence intensity of selenide 1 and phenol 5 were investigated. Solutions containing ultrapure water (681 μL), […] phosphate pH 7 buffer (31 μL), DMSO (28.1 μL), and 80 μM 1 or phenol 5 in DMSO (9.4 μL) were made. Aliquots of these solutions (200 μL) were transferred to the wells of a black 96-well plate and the fluorescence was measured. As evident from FIG. 10 and Table 1, the difference in fluorescence intensity of probe 1 and phenol 5, is 27-fold. Generally, O-alkylation of Pittsburgh Green suppresses the fluorescence by 200-400 fold. The somewhat modest fluorescence increase in the current system is attributed to the trace contamination of the fluorescent compound 5 during the purification of the nonfluorescent probe 1.

RAW cells = test: Imaging of endogenous H2O2 upon ionomycin stimulation in RAW cells; assay type: cell-based
Excerpt: After detecting exogenously added H2O2 in cells, the focus shifted to more biologically relevant, endogenous H2O2. It was attempted to monitor endogenous H2O2 production upon stimulation with ionomycin in RAW cells. […] In contrast, with probe 1, a significant response was observed within 30 s after the addition of ionomycin relative to the baseline fluorescence (FIG. 24B-C) and peaked at 48 s.

[2] = Kinetics of the reaction of 1 with H2O2
[3] = Selectivity of 1: reaction with ONOO^−; details: for Fluorescence Intensity: pH 7, 25° C., 15 min
Method: (§1) Next, it was tested whether OCl^− and ONOO^− (peroxynitrite), would react with 1. A solution of 0, 1, 10, or 22 μM ONOO— in 0.3 M NaOH (20 μL) or 1, 10, 100, or 1000 μM NaOCl in water (20 μL) was added to the wells of a black 96-well plate. A solution of 10 μM 1 in DMSO (560 μL) and 5:95 MeCN/1.2 M phosphate pH 7 buffer (4.48 mL) was made; this solution (180 μL) was transferred to each of the wells. The samples were allowed to incubate at 25° C. for 15 min before the fluorescence was measured. […] This may be attributed to trace amounts of H2O2 in the ONOO^− solution.

endothelial cells = test: Localization of 1 in endothelial cells with MitoTracker Red, ionomycin stimulation; assay type: cell-based; details: ionomycin 10 μM
Method: To study the localization of 1, endothelial cells were simultaneously incubated with 1 μM MitoTracker® Red FM (ThermoFisher Scientific) for 20 min at 37° C. (FIG. 24D). The dish was inserted in a closed, thermo-controlled (37° C.) stage top incubator (Tokai Hit Co., Shizuoka-ken, Ja-pan) atop the motorized stage of an inverted Nikon TiE fluorescent microscope (Nikon Inc., Melville, NY) equipped with a 60× oil immersion optic (Nikon, CFI PlanFluor, NA 1.49) and NIS Elements Software. The sample was excited using the 555 nm line and detected using a TRITC filter set.

[4] = Selectivity of 1: reaction with NO2^−; details: for Fluorescence: change over first 15 min
Method: It was then sought to determine whether RNS would react with 1 to produce fluorescence. The probe 1 was first exposed to NO2^− at various concentrations. NaNO2 (97.0 mg) was dissolved in ultrapure water (2.00 mL). […] A solution of 100 μM 1 in ethanol (20 μL) was added to 5:95 methanol/50 mM phosphate pH 7 buffer (160 μL). The NaNO2 or H2O2 solutions (20 μL) were added to the solution containing 1 and the fluorescence intensity was measured immediately and again after incubation at 25° C. for 15 min. The fluorescence change over the first 15 min was reported for NO2^− in FIG. 20 and Table 11.

[5] = Selectivity of 1: reaction with ClO^−; details: for Fluorescence Intensity: pH 7, 25° C., 15 min
Method: as §1

## Oc1ccc2c(c1)Oc1cc(O/C=C/C[Se]c3ccccc3)ccc1[C@@]21OCc2ccccc21 [Compound 1, (S,E)-6′-((3-(Phenylselanyl)prop-1-en-1-yl)oxy)-3H-spiro[isobenzofuran-1,9′-xanthen]-3′-ol]
[1]; extrapolated
  signal increase in the conversion if trace phenol 5 can be removed from selenide 1: 125-250 fold
[1]; phosphate pH 7 buffer
  difference in fluorescence intensity of probe 1 and phenol 5: 27 fold
[1]; water/phosphate pH 7 buffer/DMSO, 200 μL, excitation 490 nm, emission 510-570 nm, replicates n = 3
  Fluorescence Intensity: 7,053 and 11,524 and 8,556
RAW cells
  time of fluorescence peak after the addition of ionomycin: 48 s
RAW cells; 0.5 μM 1, ionomycin 10 μM
  time to significant response after the addition of ionomycin: ≤ 30 s
[2]
  rate of reaction with H2O2 relative to boronate-based probes: seven times faster
[2]; 5% MeCN in pH 7.5 HEPES buffer 50 mM, [1]=1.7 μM
  second order rate constant k: 9.82 ± 1.11 M⁻¹ s⁻¹
[2]; [H2O2] 0.625 mM
  Slope k′: 0.00251 s⁻¹
[2]; [H2O2] 1.25 mM
  Slope k′: 0.01359 s⁻¹
[2]; [H2O2] 2.5 mM
  Slope k′: 0.02432 s⁻¹
[2]; [H2O2] = 0.625 mM, 30 s
  F-F0 (515 nm): 145,691 and 101,161 and 83,026
  [1]: 1.3453 µM and 1.4596 µM and 1.5061 µM
[2]; [H2O2] = 0.625 mM, 90 s
  F-F0 (515 nm): 220,196 and 277,036 and 236,883
  [1]: 1.1541 µM and 1.0082 µM and 1.1113 µM
[2]; [H2O2] = 0.625 mM, 150 s
  F-F0 (515 nm): 301,900 and 391,059 and 348,470
  [1]: 0.9444 µM and 0.7157 µM and 0.8249 µM
[2]; [H2O2] = 0.625 mM, 210 s
  F-F0 (515 nm): 355,049 and 458,596 and 422,910
  [1]: 0.8081 µM and 0.5424 µM and 0.6339 µM
[2]; [H2O2] = 0.625 mM, 270 s
  F-F0 (515 nm): 390,358 and 499,861 and 473,964
  [1]: 0.7175 µM and 0.4365 µM and 0.5029 µM
[2]; [H2O2] = 0.625 mM, 330 s
  F-F0 (515 nm): 421,561 and 522,358 and 509,584
  [1]: 0.6374 µM and 0.3787 µM and 0.4115 µM
[2]; [H2O2] = 0.625 mM, 390 s
  F-F0 (515 nm): 450,025 and 534,705 and 536,252
  [1]: 0.5643 µM and 0.3470 µM and 0.3431 µM
[2]; [H2O2] = 0.625 mM, 450 s
  F-F0 (515 nm): 477,638 and 541,922 and 555,207
  [1]: 0.4935 µM and 0.3285 µM and 0.2944 µM
[2]; [H2O2] = 0.625 mM, 510 s
  F-F0 (515 nm): 501,767 and 546,290 and 569,868
  [1]: 0.4316 µM and 0.3173 µM and 0.2568 µM
[2]; [H2O2] = 0.625 mM, 570 s
  F-F0 (515 nm): 524,121 and 550,122 and 581,518
  [1]: 0.3742 µM and 0.3075 µM and 0.2269 µM
[2]; [H2O2] = 0.625 mM, 630 s
  F-F0 (515 nm): 543,908 and 551,490 and 591,076
  [1]: 0.3234 µM and 0.3040 µM and 0.2024 µM
[2]; [H2O2] = 0.625 mM, 690 s
  F-F0 (515 nm): 559,985 and 551,741 and 599,176
  [1]: 0.2822 µM and 0.3033 µM and 0.1816 µM
[2]; [H2O2] = 0.625 mM, 750 s
  F-F0 (515 nm): 570,897 and 553,475 and 603,780
  [1]: 0.2542 µM and 0.2989 µM and 0.1698 µM
[2]; [H2O2] = 0.625 mM, 810 s
  F-F0 (515 nm): 580,693 and 553,568 and 609,902
  [1]: 0.2290 µM and 0.2986 µM and 0.1541 µM
[2]; [H2O2] = 0.625 mM, 870 s
  F-F0 (515 nm): 587,536 and 552,326 and 614,108
[2]; [H2O2] = 1.25 mM, 30 s
  F-F0 (515 nm): 255,659 and 258,915 and 225,047
  [1]: 1.0631 µM and 1.0547 µM and 1.1417 µM
[2]; [H2O2] = 1.25 mM, 90 s
  F-F0 (515 nm): 364,712 and 517,271 and 484,926
  [1]: 0.7833 µM and 0.3918 µM and 0.4748 µM
[2]; [H2O2] = 1.25 mM, 150 s
  F-F0 (515 nm): 463,364 and 607,290 and 590,662
[2]; [H2O2] = 1.25 mM, 210 s
  F-F0 (515 nm): 514,663 and 641,798 and 639,332
[2]; [H2O2] = 1.25 mM, 270 s
  F-F0 (515 nm): 549,297 and 656,229 and 660,178
[2]; [H2O2] = 1.25 mM, 330 s
  F-F0 (515 nm): 572,635 and 661,539 and 664,254
[2]; [H2O2] = 1.25 mM, 390 s
  F-F0 (515 nm): 589,797 and 665,178 and 666,753
[2]; [H2O2] = 1.25 mM, 450 s
  F-F0 (515 nm): 601,493 and 663,842 and 669,367
[2]; [H2O2] = 1.25 mM, 510 s
  F-F0 (515 nm): 606,377 and 663,608 and 673,539
[2]; [H2O2] = 1.25 mM, 570 s
  F-F0 (515 nm): 612,207 and 662,594 and 675,671
[2]; [H2O2] = 1.25 mM, 630 s
  F-F0 (515 nm): 614,405 and 663,947 and 677,477
[2]; [H2O2] = 1.25 mM, 690 s
  F-F0 (515 nm): 616,203 and 663,123 and 679,640
[2]; [H2O2] = 1.25 mM, 750 s
  F-F0 (515 nm): 616,371 and 663,595 and 679,888
[2]; [H2O2] = 1.25 mM, 810 s
  F-F0 (515 nm): 614,783 and 663,765 and 683,016
[2]; [H2O2] = 1.25 mM, 870 s
  F-F0 (515 nm): 614,819 and 662,173 and 685,799
[2]; [H2O2] = 2.5 mM, 30 s
  F-F0 (515 nm): 425,024 and 405,551 and 398,309
  [1]: 0.6285 µM and 0.6785 µM and 0.6971 µM
[2]; [H2O2] = 2.5 mM, 90 s
  F-F0 (515 nm): 539,467 and 612,814 and 630,136
[2]; [H2O2] = 2.5 mM, 150 s
  F-F0 (515 nm): 601,940 and 657,981 and 671,946
[2]; [H2O2] = 2.5 mM, 210 s
  F-F0 (515 nm): 627,168 and 666,435 and 680,181
[2]; [H2O2] = 2.5 mM, 270 s
  F-F0 (515 nm): 636,230 and 665,190 and 679,366
[2]; [H2O2] = 2.5 mM, 330 s
  F-F0 (515 nm): 638,753 and 666,173 and 674,138
[2]; [H2O2] = 2.5 mM, 390 s
  F-F0 (515 nm): 641,141 and 663,899 and 664,993
[2]; [H2O2] = 2.5 mM, 450 s
  F-F0 (515 nm): 640,270 and 661,893 and 664,416
[2]; [H2O2] = 2.5 mM, 510 s
  F-F0 (515 nm): 639,383 and 659,509 and 664,003
[2]; [H2O2] = 2.5 mM, 570 s
  F-F0 (515 nm): 637,346 and 658,746 and 663,104
[2]; [H2O2] = 2.5 mM, 630 s
  F-F0 (515 nm): 637,422 and 656,826 and 661,222
[2]; [H2O2] = 2.5 mM, 690 s
  F-F0 (515 nm): 636,174 and 654,911 and 659,002
[2]; [H2O2] = 2.5 mM, 750 s
  F-F0 (515 nm): 634,294 and 654,494 and 657,410
[2]; [H2O2] = 2.5 mM, 810 s
  F-F0 (515 nm): 631,953 and 653,606 and 654,988
[2]; [H2O2] = 2.5 mM, 870 s
  F-F0 (515 nm): 631,346 and 651,140 and 655,338
[3]
  fluorescence change with increasing ONOO^− concentration: slight increase in fluorescence intensity
[3]; 100 nM ONOO^−
  Fluorescence Intensity: 23,606 and 21,961 and 20,229
[3]; 1.0 μM ONOO^−
  Fluorescence Intensity: 46,271 and 39,358 and 35,209
[3]; 2.2 μM ONOO^−−
  Fluorescence Intensity: 63,954 and 56,351 and 61,987
Endothelial cells
  time after the addition of ionomycin of first image showing increased fluorescence: ≤ 8 s
[4]
  reaction with NO2^−: did not react
[4]; 0 μM NO2^− or H2O2, pH 7, 25° C.
  Fluorescence: 24,359 and 26,870 and 26,226
[4]; 0.1 μM H2O2
  Fluorescence: 58,172 and 52,104 and 52,249
[4]; 0.1 μM NO2^−
  Fluorescence: 31,075 and 36,429 and 27,504
[4]; 1 μM H2O2
  Fluorescence: 266,770 and 242,313 and 222,834
[4]; 1 μM NO2^−
  Fluorescence: 26,768 and 31,470 and 33,004
[5]
  fluorescence change with increasing concentrations of OCl^−: No statistically significant increase in fluorescence intensity
[5]; 100 nM NaOCl
  Fluorescence Intensity: 33,503 and 25,413 and 28,088
[5]; 1.0 μM NaOCl
  Fluorescence Intensity: 28,551 and 25,590 and 33,211
[5]; 10 μM NaOCl
  Fluorescence Intensity: 41,611 and 35,271 and 35,308
[5]; 100 μM NaOCl
  Fluorescence Intensity: 46,362 and 40,070 and 41,695
[5]; no ROS
  Fluorescence Intensity: 30,591 and 24,478 and 26,025

Source: patent US12540150B1, “Fluorogenic probe using a Mislow-Evans rearrangement for real-time imaging of hydrogen peroxide” (University of Pittsburgh—Of the Commonwealth System of …, priority 2020, dated 2026)
